Assay results reported in ChEMBL document CHEMBL1201862, “PubChem BioAssay data set” (2004).
Active and inactive are the calls of the source.

Tests used:
[1] = molecular target: Cytochrome P450 2C9 (Homo sapiens, UniProt P11712)
[2] = molecular target: 5-hydroxytryptamine receptor 5A (Homo sapiens, UniProt P47898); test: Counterscreen for agonists of OPRM1-OPRD1 heterodimerization: luminescence-based cell-based high throughput dose response assay to identify agonists of 5-hydroxytryptamine (serotonin) 5A receptor (HTR5A). [Related pubchem assays (depositor defined):AID504326, AID504355, AID504692, AID504904, AID504905]; type: functional
Chain of 5-hydroxytryptamine receptor 5A (P47898 whole entry): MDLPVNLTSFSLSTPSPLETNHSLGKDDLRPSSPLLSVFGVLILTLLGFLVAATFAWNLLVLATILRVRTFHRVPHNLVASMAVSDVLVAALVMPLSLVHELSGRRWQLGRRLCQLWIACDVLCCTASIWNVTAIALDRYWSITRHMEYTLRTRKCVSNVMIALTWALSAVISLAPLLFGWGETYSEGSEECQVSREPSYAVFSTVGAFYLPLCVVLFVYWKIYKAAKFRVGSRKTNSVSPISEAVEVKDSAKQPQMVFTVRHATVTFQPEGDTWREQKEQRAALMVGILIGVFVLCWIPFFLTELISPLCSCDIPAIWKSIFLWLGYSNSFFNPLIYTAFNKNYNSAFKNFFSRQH

[3] = molecular target: Mu-type opioid receptor (Homo sapiens, UniProt P35372); test: (§1) Counterscreen for agonists of heterodimerization of the mu 1 (OPRM1) and delta 1 (OPRD1) opioid receptors: Luminescence-based cell-based high throughput dose response assay to identify agonists of OPRM1 homodimerization.; type: functional
Chain of Mu-type opioid receptor (P35372 whole entry): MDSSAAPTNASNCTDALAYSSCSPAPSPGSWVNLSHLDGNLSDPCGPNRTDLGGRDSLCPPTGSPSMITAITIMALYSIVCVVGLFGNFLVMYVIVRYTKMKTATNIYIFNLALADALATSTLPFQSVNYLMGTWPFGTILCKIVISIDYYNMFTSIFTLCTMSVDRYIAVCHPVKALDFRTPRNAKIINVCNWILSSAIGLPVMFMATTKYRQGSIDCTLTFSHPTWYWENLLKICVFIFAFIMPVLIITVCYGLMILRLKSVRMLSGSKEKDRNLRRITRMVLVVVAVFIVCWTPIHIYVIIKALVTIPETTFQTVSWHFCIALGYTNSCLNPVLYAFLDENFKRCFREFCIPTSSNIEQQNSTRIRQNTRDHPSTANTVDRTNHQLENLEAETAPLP

[4] = molecular target: Delta-type opioid receptor (Homo sapiens, UniProt P41143); test: as §1, with “of OPRD1” for “of OPRM1”, “homodimerization. [Related pubchem assays (depositor defined):AID504326, AID504355, AID504692, AID504904, AID504905]” for “homodimerization.”; type: functional
Chain of Delta-type opioid receptor (P41143 whole entry): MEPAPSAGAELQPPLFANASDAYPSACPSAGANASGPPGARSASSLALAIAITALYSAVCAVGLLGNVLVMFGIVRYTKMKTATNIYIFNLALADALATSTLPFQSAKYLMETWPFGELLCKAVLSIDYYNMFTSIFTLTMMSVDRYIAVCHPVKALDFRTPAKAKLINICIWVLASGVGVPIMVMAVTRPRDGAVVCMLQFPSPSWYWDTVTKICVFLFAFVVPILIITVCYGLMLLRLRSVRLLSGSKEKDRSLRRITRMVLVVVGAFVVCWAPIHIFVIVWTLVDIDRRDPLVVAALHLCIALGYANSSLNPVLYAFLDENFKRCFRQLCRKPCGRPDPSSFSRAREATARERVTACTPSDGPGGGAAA

[5] = molecular target: T1, Bcl-2-related protein A1 (Mus musculus, UniProt Q07440); type: functional;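 note: confirmatory dose–response counterscreen on Bfl-1, used to check hits from a UBC13 polyubiquitin inhibitor campaign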
T1 sequence (Q07440 whole entry): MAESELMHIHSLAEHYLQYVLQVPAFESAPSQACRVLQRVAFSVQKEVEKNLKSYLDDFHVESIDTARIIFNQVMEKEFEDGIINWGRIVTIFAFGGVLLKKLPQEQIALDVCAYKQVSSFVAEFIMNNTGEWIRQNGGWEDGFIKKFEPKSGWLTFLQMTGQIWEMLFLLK

[6] = molecular target: T2, Ubiquitin-conjugating enzyme E2 N (Homo sapiens, UniProt P61088); type: functional
T2 sequence (P61088 whole entry): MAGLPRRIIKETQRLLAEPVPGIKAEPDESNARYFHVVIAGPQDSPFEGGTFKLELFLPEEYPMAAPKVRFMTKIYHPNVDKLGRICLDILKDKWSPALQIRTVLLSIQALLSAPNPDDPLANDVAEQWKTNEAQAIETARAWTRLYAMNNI

[7] = molecular target: T2, Ubiquitin-conjugating enzyme E2 N; type: functional; remark: listed apart in the source
[8] = molecular target: T3, Endoribonuclease toxin MazF (Escherichia coli K-12, UniProt P0AE70); test: MazF toxin RNase activators, dose response, biochemical, fluorescence, single-stranded RNA substrate, uHTS hits (AID 588481); type: functional
T3 sequence (P0AE70 whole entry): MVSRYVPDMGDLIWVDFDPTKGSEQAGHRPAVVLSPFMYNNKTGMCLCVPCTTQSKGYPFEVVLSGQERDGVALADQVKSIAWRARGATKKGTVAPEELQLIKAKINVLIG

[9] = A Cell Based Secondary Assay To Explore Cytotoxicity of Compounds that Sensitize Mycobacterium Tuberculosis to Beta-Lactam Antibiotics.; type: functional
[10] = molecular target: T4, RNA-binding protein pos-1 (Caenorhabditis elegans, UniProt G5EF15); test: inhibitors of POS-1/mex-3 RNA binding, dose response, biochemical, fluorescence polarization (AID 1964);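 note: purified POS-1 fused to maltose binding protein made in E. coli; potency of compounds blocking POS-1 binding to fluorescent RNA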
T4 sequence (G5EF15 whole entry): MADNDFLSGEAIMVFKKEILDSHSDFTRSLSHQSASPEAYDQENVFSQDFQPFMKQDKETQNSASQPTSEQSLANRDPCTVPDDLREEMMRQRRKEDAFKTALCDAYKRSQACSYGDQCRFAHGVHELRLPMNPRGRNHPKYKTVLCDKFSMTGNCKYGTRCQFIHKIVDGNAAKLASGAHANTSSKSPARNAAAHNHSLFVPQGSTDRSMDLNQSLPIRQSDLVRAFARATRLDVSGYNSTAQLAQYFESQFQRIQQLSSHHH

[11] = system: Streptococcus; test: Group A Streptococcus viability loss, dose response, counter-screen for streptokinase expression inhibitor project, luminescence, BacTiterGlo (AID 1915); type: functional, organism-based;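 note: potency for reduction of bacterial viability or growth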
[12] = molecular target: T5, Zinc finger protein mex-5 (Caenorhabditis elegans, UniProt Q9XUB2); test: MEX-5/TCR-2 RNA interaction inhibitors, dose response, biochemical, C. elegans, fluorescence polarization (AID 1960)
T5 sequence (Q9XUB2 whole entry): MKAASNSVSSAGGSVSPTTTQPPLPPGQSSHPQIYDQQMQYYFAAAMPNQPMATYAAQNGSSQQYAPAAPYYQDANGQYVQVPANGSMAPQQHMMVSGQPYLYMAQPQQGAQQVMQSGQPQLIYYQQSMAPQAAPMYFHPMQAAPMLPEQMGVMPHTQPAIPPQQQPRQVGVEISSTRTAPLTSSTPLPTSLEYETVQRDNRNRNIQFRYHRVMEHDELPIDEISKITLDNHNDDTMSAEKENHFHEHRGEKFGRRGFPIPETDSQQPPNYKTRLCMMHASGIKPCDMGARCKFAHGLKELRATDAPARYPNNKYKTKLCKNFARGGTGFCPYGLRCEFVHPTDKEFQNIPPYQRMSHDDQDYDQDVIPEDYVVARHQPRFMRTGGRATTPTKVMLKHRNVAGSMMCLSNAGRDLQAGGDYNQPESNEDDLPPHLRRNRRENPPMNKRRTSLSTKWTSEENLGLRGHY

[13] = molecular target: T6, Streptokinase A (Streptococcus pyogenes serotype M1, UniProt P10520); test: S. pyogenes streptokinase expression inhibitors, potency, dose response, plasminogen activation absorbance, OD405 (AID 1914); type: functional, Streptococcus pyogenes M1 GAS;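 note: secreted streptokinase activity via plasminogen activation per viability signal from cell pellet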
T6 sequence (P10520 whole entry): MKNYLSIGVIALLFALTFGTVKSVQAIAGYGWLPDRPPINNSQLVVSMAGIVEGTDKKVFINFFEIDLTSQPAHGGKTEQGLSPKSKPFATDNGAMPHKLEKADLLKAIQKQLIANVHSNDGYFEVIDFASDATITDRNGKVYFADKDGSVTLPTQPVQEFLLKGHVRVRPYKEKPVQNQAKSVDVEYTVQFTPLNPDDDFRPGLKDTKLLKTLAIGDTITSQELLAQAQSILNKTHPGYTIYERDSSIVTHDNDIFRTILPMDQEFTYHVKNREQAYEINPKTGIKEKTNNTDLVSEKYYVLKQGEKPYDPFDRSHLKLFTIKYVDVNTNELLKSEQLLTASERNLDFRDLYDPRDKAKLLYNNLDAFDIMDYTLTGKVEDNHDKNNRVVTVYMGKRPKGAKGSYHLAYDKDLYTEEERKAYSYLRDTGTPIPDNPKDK

[14] = molecular target: T3, Endoribonuclease toxin MazF; test: fluorescent RNA oligo signal without MazF, dose response, counter-screen for MazEF activator project, biochemical, fluorescence, single-stranded RNase substrate (AID 588502); type: functional
[15] = system: Streptococcus sp. 'group A'; test: growth inhibition of control SK(-) GAS strain, dose response, counter-screen for streptokinase expression inhibitor project, luminescence, kanamycin, BacTiterGlo, confirmation (AID 1900); type: functional, organism-based
[16] = molecular target: T7, Calpain-2 catalytic subunit (Sus scrofa, UniProt P43367); test: pig calpain II inhibitor potency, dose response, biochemical, fluorogenic peptide substrate (AID 1420); type: functional
T7 sequence (P43367 whole entry): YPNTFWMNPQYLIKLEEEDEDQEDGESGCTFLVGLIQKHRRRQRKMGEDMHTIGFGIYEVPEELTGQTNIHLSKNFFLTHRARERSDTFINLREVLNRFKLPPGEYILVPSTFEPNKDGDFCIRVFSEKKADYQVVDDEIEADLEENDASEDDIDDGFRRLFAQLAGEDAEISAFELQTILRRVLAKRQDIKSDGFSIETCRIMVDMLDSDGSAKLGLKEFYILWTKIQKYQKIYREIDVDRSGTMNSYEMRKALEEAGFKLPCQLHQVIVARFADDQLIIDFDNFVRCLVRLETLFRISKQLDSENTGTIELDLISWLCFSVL

Chain of Cytochrome P450 2C9 (P11712 whole entry): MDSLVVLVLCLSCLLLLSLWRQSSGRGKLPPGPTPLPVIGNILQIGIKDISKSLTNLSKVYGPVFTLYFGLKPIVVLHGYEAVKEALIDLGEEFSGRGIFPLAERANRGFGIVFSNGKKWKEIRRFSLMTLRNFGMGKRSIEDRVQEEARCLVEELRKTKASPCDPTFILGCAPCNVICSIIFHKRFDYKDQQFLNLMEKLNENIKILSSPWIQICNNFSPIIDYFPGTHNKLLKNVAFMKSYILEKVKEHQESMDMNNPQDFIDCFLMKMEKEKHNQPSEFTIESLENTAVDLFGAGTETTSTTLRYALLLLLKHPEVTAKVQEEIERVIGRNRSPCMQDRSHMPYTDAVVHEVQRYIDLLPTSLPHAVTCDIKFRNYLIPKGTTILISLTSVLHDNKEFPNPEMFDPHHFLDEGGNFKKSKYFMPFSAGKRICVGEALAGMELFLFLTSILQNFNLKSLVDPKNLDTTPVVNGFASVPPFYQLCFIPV

## COc1cc(C2C(C#N)=C(N)N(c3sc4c(c3C#N)CCCC4)C3=C2C(=O)CC(C)(C)C3)cc(OC)c1OC (centres undefined)
[1]
  AC50: 12.6 µM (inconclusive)
[2]
  EC50: > 92.5 µM (inactive)
[3]
  EC50: > 92.5 µM (inactive)
[4]
  EC50: > 92.5 µM (inactive)

## COc1cccc(NC(=O)CSc2nc3ccccc3c(=O)n2Cc2cccs2)c1
[5]
  IC50: > 20 µM (inactive)
[6]
  IC50: 19.3 µM (active)
[7]
  IC50: > 20 µM (inactive)

## CC1=Nc2ccccc2/C1=C\c1nc(-c2ccc(F)cc2)oc1O
[8]
  EC50: > 99 µM (inactive)
[9]
  CC50: > 40 µM (active)
[10]
  EC50: > 300 µM (not active)
[11]
  EC50: > 150 µM (not active)
[12]
  EC50: 5.53 µM (active)
[13]
  EC50: 16.6 µM (active)
[14]
  EC50: 55.9 µM (inactive)
[15]
  EC50: 8.82 µM (active)

## CN(C)C(CNC(C(=O)Nc1ccc([N+](=O)[O-])cc1Br)c1ccccc1)c1ccccc1 (centres undefined)
[2]
  EC50: > 92.5 µM (inactive)
[16]
  IC50: 4.94 µM (not active)
[3]
  EC50: > 92.5 µM (inactive)
[4]
  EC50: > 92.5 µM (inactive)
